Measured values: patent US20240115577A1, “SMALL MOLECULE REGULATORS OF ALVEOLAR TYPE 2 CELL PROLIFERATION FOR THE TREATMENT OF PULMONARY DISEASES” (THE SCRIPPS RESEARCH INSTITUTE, priority 2021, published 2024)
“Also recorded” adds a separate entry of the source. Like-named read-outs stand apart in the source and are kept apart here.

Assays:
[1] = system: Primary human AEC2s; assay: AEC2 proliferation assay (Ki67 high content imaging); assay type: cell-based; settings: for EC50: Homo sapiens
Method: To identify small molecules capable of proliferating AEC2s, as disclosed herein, we first established a culture system with primary human small airway epithelial cells (SAECs) from a commercial source.
AEC2 proliferation assay. Primary human AEC2s were plated at a density of 1,500 cells per well in black 384-well plates (Greiner) coated with 10 ug/mL. Laminin (Life Technologies) in 50 μL of Small Airway Epithelial Cell Growth Medium (Lonza) without EGF, retinoic acid and with 5% BPE. 100 nL of compound dissolved in DMSO was then delivered using a Biomek FX instrument (Beckman Coulter) fitted with a pintool head (V&P Scientific).

[2] = Pharmacokinetic profiling of four gliptins (oral, IT or OP); assay type: in vivo, mouse; settings: for fraction of oral dose required by pulmonary (IT or OP) delivery for similar lung exposure: oral 100 mg/kg versus IT/OP 20 mg/kg
Method: B. Pharmacokinetic profiling. […] Thus, four of the five […] currently approved by the U.S. FDA were each administered to mice orally (100 mg/kg) or through intratracheal (IT) or oropharyngeal (OP) routes (20 mg/kg).

[3] = system: oral glucose tolerance; settings: rodent models of diabetes; cited from earlier work
[4] = system: bleomycin-induced lung fibrosis; assay: Bleomycin-induced lung fibrosis model; assay type: in vivo, mouse; settings: for Dose required in mouse bleomycin / Dose required in mouse bleomycin, multiple of HED: Table 6; for Efficacy in bleomycin-induced lung fibrosis, result in words: oral, high doses
Method: Experimental Methods of Bleomycin Model Bleomycin (Hospira) was used to induce lung fibrosis in mice. Body weight matched (24 gram˜28 gram) male C57BL/6J mice at 10-12 weeks of age were selected to use in bleomycin model. For orally delivered DPP4 inhibitors. compounds were dissolved in PBS resulting in clear solution. […] For intratracheally delivered DPP4 inhibitors, compounds were dissolved in PBS resulting in clear solution. […] 0.5 U/kg Bleomycin or PBS in sham group was intratracheally injection into mice lung at day 0. […] All animals were sacrificed at day 20 after bleomycin injection. Bronchoalveolar lavage fluid (BALF) was retrieved using standard method. 1 ml 4% formalin was used to inflate the lung, which was subsequently fixed in 4% formalin for 24 hours and preserved in 70% EtOH until histological process. For readouts, body weight was measured every day; total protein content in BALF was quantified using BCA assay; pulmonary fibrosis was assessed using Masson's trichrome staining.

[5] = system: acute lung injury induced by LPS; assay: LPS-induced acute lung injury (ALI) model; assay type: in vivo, mouse; settings: for minimal efficacious dose in LPS lung injury model / Efficacy in LPS acute lung injury model, result in words: oral; for Efficacy in LPS acute lung injury model, result in words: histological scoring, BALF protein
Method: Experimental methods of Acute Lung Injury (ALI) model
LPS from E. coli […] (Sigma) was used to induce acute lung injury in mice. Body weight matched (19 gram˜22 gram) female C57BL/6J mice at 9-11 weeks of age were selected to use in ALI model.
Vehicle control or DPP4 inhibitors were dosed at 10 ml/kg through oral gavage once or twice a day selected based on PK profile. […] Vehicle control or DPP4 inhibitors were dosed at 2 ml/kg through a 22 g flexible catheter every other day.
DPP4 inhibitors or vehicle control were given to mice starting from one day before LPS injection (day −1).
All animals were sacrificed at day 3.5 after LPS injection. Bronchoalveolar lavage fluid (BALF) was retrieved using standard method. 1 ml 4% formalin was used to inflate the lung, which was subsequently fixed in 4% formalin for 24 hours and preserved in 70% EtOH until histological process.
For readouts, total protein content in BALF was quantified using BCA assay: pulmonary inflammation and damage were assessed using H&E staining.

[6] = system: phospholipidosis; assay: Phospholipidosis assay in vitro; settings: FIG. 7A; listed as Linagliptin
[7] = system: HbA1c; settings: once-a-day oral doses of 200 mg and 400 mg; cited from earlier work
[8] = IT pharmacokinetics of dutogliptin (1) and dutogliptin boronate (15); assay type: in vivo, mouse; settings: mouse, in vivo
Method: Like other […]. Dutogliptin (1) dosed IT in mice with PBS solution quickly cleared in lung (<24h. Table 8A). […] The parent drug dutogliptin was detected in plasma and lung. […] The drug was retained in the lung for over 48 h. The data clearly illustrated the unexpected lung retention ability of boronate prodrug 15.

[9] = in vivo; cited from earlier work
[10] = Table 4, promotion of AEC2 proliferation, read-out: AEC2 EC50
[11] = Table 5, read-out: AEC2 proliferation
[12] = 4.4 mg/kg, Lung concentration of dutogliptin, Mean
[13] = 4.4 mg/kg, Lung concentration of dutogliptin, individual animals

| Compound | EC50 [1, 10] [nM] | EC50 [1, 11] [nM] | fraction of oral dose required by pulmonary (IT or OP) delivery for similar lung exposure [2] | AEC2 proliferation, result in words [1] | dose with efficacy in OGTT model [3] [mg/kg] | Dose required in mouse bleomycin [4] | Dose required in mouse bleomycin, multiple of HED [4] | Efficacy in bleomycin-induced lung fibrosis, result in words [4] | Dose required in mouse ALI ([5]; Table 6) | minimal efficacious dose in LPS lung injury model [5] [mg/kg] | Dose required in mouse ALI, multiple of HED ([5]; Table 6) | Efficacy in LPS acute lung injury model, result in words ([5]; high doses) | further results |
| --- | --- | --- | --- | --- | --- | --- | --- | --- | --- | --- | --- | --- | --- |
| N[C@@H](CC(=O)N1CCn2c(nnc2C(F)(F)F)C1)Cc1cc(F)c(F)cc1F [Sitagliptin] |  | 560 | one-fifth | promote AEC2 proliferation to the same magnitude as NVP-728 | 3 to 30 | 100 mg/kg mg/kg BID |  | efficacious; also recorded: ameliorative efficacy; also recorded: robust protection | 100 mg/kg BID | 100 | (10-20x HED) | efficacious; also recorded: promote repair; also recorded: dramatic improvements | protection in bleomycin model, co-treatment with Nintedanib (Ofev) ([4]; Bliss independence calculations): synergistic protection; proliferative AEC2s (KI-67 SFPTC double positive cells) ([5]; LPS model): substantial increase; total number of cells (all nuclei) or Ki-67 positive cells in the lung ([5]; LPS model): does not significantly increase; cytokine or BALF levels at early timepoints ([5]; high doses, time course): do not affect |
| CC#CCn1c(N2CCC[C@@H](N)C2)nc2c1c(=O)n(Cc1nc(C)c3ccccc3n1)c(=O)n2C [Cpd 5, (R)-8-(3-aminopiperidin-1-yl)-7-(but-2-yn-1-yl)-3-methyl-1-((4-methylquinazolin-2-yl)methyl)-3,7-dihydro-1H-purine-2,6-dione] |  |  | one-fifth |  |  | >10 mg/kg qD | (>20x HED) | efficacious | 1 mg/kg QD |  | model (2x HED) | efficacious | lung exposure over the evaluated time frame ([2]; versus other gliptins): considerably higher lung exposure; doses with antagonistic activity, repeat dosing ([5]; FIG. 7B): ≥ 2 mg/kg; efficacious dose, repeat dosing ([5]; FIG. 7B): 1 mg/kg; dose toxic in mouse ALI model ([5]; Table 6): 2 mg/kg; phospholipidosis induction [6]: significant phospholipidosis at low concentrations; also recorded: induces phospholipidosis |
| Cc1cc(N2CCN([C@@H]3CN[C@H](C(=O)N4CCSC4)C3)CC2)n(-c2ccccc2)n1 [Cpd 8, ((2S,4S)-4-(4-(3-methyl-1-phenyl-1H-pyrazol-5-yl)piperazin-1-yl)pyrrolidin-2-yl)(thiazolidin-3-yl)methanone] |  |  |  |  |  |  |  |  |  |  |  |  | Adverse Events [9]: 160 mg/day cardiac safety |

Second part, led by results:

| EC50 [1, 10] [nM] | EC50 [1, 11] [nM] | fraction of oral dose required by pulmonary (IT or OP) delivery for similar lung exposure [2] | Compound | AEC2 proliferation, result in words [1] | dose with efficacy in OGTT model [3] [mg/kg] | Dose required in mouse bleomycin [4] | Dose required in mouse bleomycin, multiple of HED [4] | Efficacy in bleomycin-induced lung fibrosis, result in words [4] | Dose required in mouse ALI ([5]; Table 6) | minimal efficacious dose in LPS lung injury model [5] [mg/kg] | Dose required in mouse ALI, multiple of HED ([5]; Table 6) | Efficacy in LPS acute lung injury model, result in words ([5]; high doses) | further results |
| --- | --- | --- | --- | --- | --- | --- | --- | --- | --- | --- | --- | --- | --- |
| 650 | 650 | one-fifth | N#C[C@@H]1C[C@@H]2C[C@@H]2N1C(=O)[C@@H](N)C12CC3C[C@@H](C1)C[C@@](O)(C3)C2 [Cpd 4, (1S,3S,5S)-2-((2S)-2-amino-2-((1S,3R,5S)-3-hydroxyadamantan-1-yl)acetyl)-2-azabicyclo[3.1.0]hexane-3-carbonitrile] | promote AEC2 proliferation to the same magnitude as NVP-728 | 0.5 to 5 | 50 mg/kg BID | (10-20x HED) | efficacious | 50 mg/kg BID (10- | 50 |  |  | Efficacy in LPS acute lung injury model, result in words ([5]; high doses, listed as Saxagliptin): efficacious; also recorded: promote repair; also recorded: dramatic improvements |
| 280 | 280 |  | O=C(CN[C@@H]1CCNC1)N1CCC[C@H]1B(O)O [Cpd 1, ((R)-1-(((R)-pyrrolidin-3-yl)glycyl)pyrrolidin-2-yl)boronic acid] |  |  |  |  |  |  |  |  |  | HbA1c versus placebo [7]: statistically reduced; time to clearance from lung [8]: < 24 h; concentration at 3 h ([8]; 4.4 mg/kg, Bronchoalveolar lavage fluids concentration of dutogliptin, Mean): 309 ng/mL; concentration at 3 h ([8]; 4.4 mg/kg, Bronchoalveolar lavage fluids concentration of dutogliptin, individual animals): 400 ng/mL; concentration at 3 h [8, 12]: 6550 ng/g; concentration at 7 h [8, 12]: 4560 ng/g; concentration at 3 h [8, 13]: 6800 ng/g; concentration at 7 h [8, 13]: 3800 ng/g; concentration at 24 h [8, 13]: 3720 ng/g |
